This is an account of results in patent US20080262026A1, “Therapeutic Agents 684” (AstraZeneca AB, priority 2007, published 2008).

In one data set the target is T1, CB1 receptor (Homo sapiens, UniProt P21554).
T1 construct: expressed in transfected cells
Nature of the data set: [35S]-GTPγS binding assay, inhibition of CP55940 (EC80) stimulated activity in membranes of cells stably transfected with the CB1 gene. In kind it is biochemical. The protocol: 10 μg of membranes prepared from cells stably transfected with the CB1 gene were suspended in 200 μl of 100 mM NaCl, 5 mM MgCl2, 1 mM EDTA, 50 mM HEPES (pH 7.4), 1 mM DTT, 0.1% BSA and 100 μM GDP. To this was added an EC80 concentration of agonist (CP55940), the required concentration of test compound and 0.1 μCi [^35S]-GTPγS. The reaction was allowed to proceed at 30° C. for 45 min. Samples were then transferred on to GF/B filters using a cell harvester and washed with wash buffer (50 mM Tris (pH 7.4), 5 mM MgCl2, 50 mM NaCl). Filters were then covered with scintilant and counted for the amount of [^35S]-GTPγS retained by the filter.
Activity is measured in the absence of all ligands (minimum activity) or in the presence of an EC80 concentration of CP55940 (maximum activity). These activities are set as 0% and 100% activity respectively. At various concentrations of novel ligand, activity is calculated as a percentage of the maximum activity and plotted. The data are fitted using the equation y=A+((B−A)/1+((C/x)ÚD)) and the IC50 value determined as the concentration required to give half maximal inhibition of GTPγS binding under the conditions used.

Data set [1] is described as follows: Solubility in dimethyl sulfoxide. In kind it is physicochemical. To be noted: organic solvent dimethyl sulfoxide. An excerpt:
The compounds of the present invention have improved solubility in organic solvents compared to compounds in the prior art. […] It would be expected that this increase in solubility in organic solvents would lead to improvements in bioavailability and ease of manufacture and formulation.

Where [2] appears, read: half maximal inhibition of GTPγS binding, EC80 concentration of agonist CP55940, 30° C. 45 min, read-out: IC50.

Where two headings read alike, the source gives them in different places.

T1 sequence (P21554 whole entry): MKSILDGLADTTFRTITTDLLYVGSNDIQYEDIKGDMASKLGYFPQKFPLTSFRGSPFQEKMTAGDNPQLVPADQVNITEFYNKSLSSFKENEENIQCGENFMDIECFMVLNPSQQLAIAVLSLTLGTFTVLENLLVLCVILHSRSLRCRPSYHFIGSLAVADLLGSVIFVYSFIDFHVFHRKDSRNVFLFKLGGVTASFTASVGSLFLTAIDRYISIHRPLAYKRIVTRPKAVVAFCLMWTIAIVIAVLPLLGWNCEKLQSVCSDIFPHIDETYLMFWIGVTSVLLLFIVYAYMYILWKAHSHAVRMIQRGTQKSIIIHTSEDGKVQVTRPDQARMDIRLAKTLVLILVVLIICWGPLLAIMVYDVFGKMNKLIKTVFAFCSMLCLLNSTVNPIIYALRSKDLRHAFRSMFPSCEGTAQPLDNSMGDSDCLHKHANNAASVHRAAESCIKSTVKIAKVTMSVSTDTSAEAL

Consider `Cc1c2c(n(-c3ccc(Cl)cc3Cl)c1-c1ccc(CN3CCC(F)(F)C3)cc1)CCN(N1CCCCC1)C2=O` [Example 1, 1-(2,4-dichlorophenyl)-2-{4-[(3,3-difluoropyrrolidin-1-yl)methyl]phenyl}-3-methyl-5-piperidin-1-yl-1,5,6,7-tetrahydro-4H-pyrrolo[3,2-c]pyridin-4-one], for which the IC50 at CB1 receptor (setting [2]) was 5.1 nM. Same read-out and setting: the figure for `Cc1c2c(n(-c3ccc(Cl)cc3Cl)c1-c1ccc(CN3CC(F)(F)C3)cc1)CCN(N1CCCCC1)C2=O` [Example 2, 1-(2,4-dichlorophenyl)-2-{4-[(3,3-difluoroazetidin-1-yl)methyl]phenyl}-3-methyl-5-piperidin-1-yl-1,5,6,7-tetrahydro-4H-pyrrolo[3,2-c]pyridin-4-one] is 7.5 nM. The same measure, in the same setting: the figure for `Cc1c2c(n(-c3ccc(Cl)cc3Cl)c1-c1ccc(/C=C/CCC(F)(F)F)cc1)CCN(N1CCCCC1)C2=O` [Example 3, 1-(2,4-dichlorophenyl)-3-methyl-5-piperidin-1-yl-2-{4-[5,5,5-trifluoropent-1-en-1-yl]phenyl}-1,5,6,7-tetrahydro-4H-pyrrolo[3,2-c]pyridin-4-one] is 5 nM; for `Cc1c2c(n(-c3ccc(Cl)cc3Cl)c1-c1ccc(CCCCC(F)(F)F)cc1)CCN(N1CCCCC1)C2=O` [Example 4, 1-(2,4-dichlorophenyl)-3-methyl-5-piperidin-1-yl-2-[4-(5,5,5-trifluoropentyl)phenyl]-1,5,6,7-tetrahydro-4H-pyrrolo[3,2-c]pyridin-4-one] it is 2.5 nM. Still for that read-out and setting: the figure for `CCC/C=C/c1ccc(-c2c(C)c3c(n2-c2ccc(Cl)cc2Cl)CCN(N2CCCCC2)C3=O)cc1` [Example 5, 1-(2,4-dichlorophenyl)-3-methyl-2-{4-[pent-1-en-1-yl]phenyl}-5-piperidin-1-yl-1,5,6,7-tetrahydro-4H-pyrrolo[3,2-c]pyridin-4-one] is 2.1 nM. Take `CCCCCc1ccc(-c2c(C)c3c(n2-c2ccc(Cl)cc2Cl)CCN(N2CCCCC2)C3=O)cc1` [Example 6, 1-(2,4-dichlorophenyl)-3-methyl-2-(4-pentylphenyl)-5-piperidin-1-yl-1,5,6,7-tetrahydro-4H-pyrrolo[3,2-c]pyridin-4-one]: the IC50 at CB1 receptor came to 2.1 nM. With `Cc1c2c(n(-c3ccc(Cl)cc3Cl)c1-c1ccc(Cl)cc1)CCN(N1CCCCC1)C2=O` [Example 19 of WO03/027114, 2-(4-chlorophenyl)-1-(2,4-dichlorophenyl)-3-methyl-5-(1-piperidinyl)-1,5,6,7-tetrahydro-4H-pyrrolo-[3,2-c]pyridin-4-one], the “solubility in dimethyl sulfoxide” value in data set [1] is on record as “insoluble”.
